“Also recorded” adds a separate entry of the source. Like-named read-outs stand apart in the source and are kept apart here.
What was measured:
recombinant human ERβ = recombinant human ERβ (Homo sapiens, UniProt Q92731); assay: ERβ radioligand; type: binding; conditions: RBA = IC50 for E2 / IC50 for the test compound
ERα [1] = biological target: T1, ERα (Homo sapiens, UniProt P03372); assay: ERα radioligand; type: binding; conditions: for ERα RBA: RBA = IC50 for E2 / IC50 for the test compound; for RBA for human ERs: text summary for human ERs (ERα and ERβ)
T1 sequence (P03372 1-595): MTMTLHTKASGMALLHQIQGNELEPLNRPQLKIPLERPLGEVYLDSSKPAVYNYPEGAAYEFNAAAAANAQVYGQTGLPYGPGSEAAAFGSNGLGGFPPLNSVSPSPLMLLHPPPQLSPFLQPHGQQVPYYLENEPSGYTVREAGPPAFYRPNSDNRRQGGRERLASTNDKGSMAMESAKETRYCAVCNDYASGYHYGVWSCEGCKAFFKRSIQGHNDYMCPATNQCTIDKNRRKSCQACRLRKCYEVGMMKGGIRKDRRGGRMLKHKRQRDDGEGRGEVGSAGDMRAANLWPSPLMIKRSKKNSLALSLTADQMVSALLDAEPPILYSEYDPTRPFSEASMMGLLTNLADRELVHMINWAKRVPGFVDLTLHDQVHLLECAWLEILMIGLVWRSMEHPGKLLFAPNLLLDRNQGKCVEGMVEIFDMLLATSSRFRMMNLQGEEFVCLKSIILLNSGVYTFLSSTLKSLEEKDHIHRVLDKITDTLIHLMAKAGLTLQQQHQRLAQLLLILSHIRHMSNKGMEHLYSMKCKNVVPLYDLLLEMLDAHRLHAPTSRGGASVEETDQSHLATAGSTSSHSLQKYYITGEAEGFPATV

ERα LBD and SRC-1 = biological target: T2, ERα LBD and SRC-1 (Homo sapiens, UniProt P03372); assay: Mammalian two-hybrid assay, ERα LBD - SRC-1 interaction in HeLa cells; type: cell-based; conditions: 100 nM ligand, GAL-SRC-1 + VP16-ERα-LBD
T2 sequence (P03372 311-547 limits assumed): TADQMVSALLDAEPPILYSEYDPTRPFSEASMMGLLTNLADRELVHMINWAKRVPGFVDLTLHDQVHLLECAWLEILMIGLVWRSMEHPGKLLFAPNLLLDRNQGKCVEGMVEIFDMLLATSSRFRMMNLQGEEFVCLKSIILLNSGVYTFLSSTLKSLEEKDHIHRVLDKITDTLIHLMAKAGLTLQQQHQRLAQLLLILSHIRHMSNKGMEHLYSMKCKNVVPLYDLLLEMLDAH

MCF-7 cells = assay: In vitro cell proliferation assay; type: cell-based, human; conditions: 0-1000 nM, 6 days, 10% FBS, no additional estrogen
ERα [2] = biological target: T1, ERα; assay: ERα trans-activation luciferase reporter assay in MCF-7 cells; conditions: 100 nM derivative, compared with 1 nM E2; ERE-Elb-Luc reporter
ERα [3] = biological target: T1, ERα; assay: ERα trans-activation luciferase reporter assay in HeLa cells; conditions: for antagonism of E2-stimulated luciferase expression in HeLa cells: in presence of 1 nM E2; for ERα agonist activity in HeLa or MCF-7 cells: 100 nM derivative, pCR3.1-ERα + ERE-Elb-Luc
MDA-MB-231 cells = assay: In vitro cell proliferation assay; type: cell-based, human; conditions: 0-1000 nM, 6 days
ERα [4] = biological target: T1, ERα; assay: ERα trans-activation luciferase reporter assay in HepG2 cells
[5] = system: ERα LBD and CBP CH3 domain; conditions: prior report ref 16; cited from earlier work

Chain of recombinant human ERβ (Q92731 whole entry): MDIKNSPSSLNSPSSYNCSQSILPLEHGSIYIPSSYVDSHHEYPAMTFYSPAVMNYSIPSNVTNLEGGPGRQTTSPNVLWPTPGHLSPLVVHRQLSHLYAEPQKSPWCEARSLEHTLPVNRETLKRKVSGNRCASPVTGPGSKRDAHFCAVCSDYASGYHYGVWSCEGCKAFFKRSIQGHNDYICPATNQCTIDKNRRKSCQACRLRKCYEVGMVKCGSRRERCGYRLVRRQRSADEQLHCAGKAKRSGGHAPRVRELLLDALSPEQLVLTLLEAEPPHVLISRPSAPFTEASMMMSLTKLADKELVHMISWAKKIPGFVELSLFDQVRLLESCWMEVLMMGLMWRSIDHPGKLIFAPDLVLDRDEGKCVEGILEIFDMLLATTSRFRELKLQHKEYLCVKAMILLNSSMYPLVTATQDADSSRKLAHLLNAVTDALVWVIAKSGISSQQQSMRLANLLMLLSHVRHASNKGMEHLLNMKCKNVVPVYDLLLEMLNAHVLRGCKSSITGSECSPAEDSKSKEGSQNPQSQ

CCOC(=O)C(Cc1ccc(C#CCCCC[C@@H]2Cc3cc(O)ccc3[C@H]3CC[C@]4(C)[C@@H](O)CC[C@H]4[C@H]23)cc1)C(=O)OCC [J8, 2-{4-[6-((7α,17β)-3,17-dihydroxyestra-1,3,5(10)-trien-7-yl)-hex-1-ynyl]-benzyl}-malonic acid diethyl ester]
ERβ RBA (recombinant human ERβ): 5.8%
ERα RBA (ERα [1]): 4.7%
promotion of ERα - SRC-1 coactivator interaction (ERα LBD and SRC-1): effectively promoted the interaction
effect on growth of ER-positive MCF-7 cells (MCF-7 cells): either no effect or a stimulatory effect; also recorded: did not show an appreciable effect
ERα agonist activity (transcription of target gene) in MCF-7 cells (ERα [2]): markedly weaker effect

CC(C)(C)OC(=O)N1CCN(c2ccc(C#CCCCC[C@@H]3Cc4cc(O)ccc4[C@H]4CC[C@]5(C)[C@@H](O)CC[C@H]5[C@H]34)cc2)CC1 [J4, 4-{4-[6-((7α,17β)-3,17-dihydroxyestra-1,3,5(10)-trien-7-yl)-hex-1-ynyl]-phenyl}-piperazine-1-carboxylic acid tert-butyl ester]
ERβ RBA (recombinant human ERβ): 2.0%
antagonism of E2-stimulated luciferase expression in HeLa cells (ERα [3]): less effective inhibitors
ERα RBA (ERα [1]): 1.1%
RBA for human ERs (ERα [1]): approximately 1 % of E2
promotion of ERα - SRC-1 coactivator interaction (ERα LBD and SRC-1): did not induce significant SRC-1 binding
effect on growth of ER-positive MCF-7 cells (MCF-7 cells): concentration-dependent inhibition
effect on growth of ER-negative MDA-MB-231 cells (MDA-MB-231 cells): no appreciable effect; also recorded: did not show an appreciable effect
ERα agonist activity (transcription of target gene) in MCF-7 cells (ERα [2]): very poor agonists

C[C@]12CC[C@@H]3c4ccc(O)cc4C[C@@H](CCCCC#Cc4ccc(-c5ccno5)cc4)[C@H]3[C@@H]1CC[C@@H]2O [J3, 3,17β-bis(hydroxy)-7α-[6-(4-Isoxazol-5-yl-phenyl)-hex-5-ynyl]-estra-1,3,5(10)-trien]
ERα agonist activity in HeLa or MCF-7 cells (ERα [3]): poor agonists
antagonism of E2-stimulated luciferase expression in HeLa cells (ERα [3]): less effective inhibitors
RBA for human ERs (ERα [1]): approximately 1 % of E2
promotion of ERα - SRC-1 coactivator interaction (ERα LBD and SRC-1): did not induce significant SRC-1 binding
effect on growth of ER-positive MCF-7 cells (MCF-7 cells): concentration-dependent inhibition
effect on growth of ER-negative MDA-MB-231 cells (MDA-MB-231 cells): no appreciable effect; also recorded: did not show an appreciable effect
agonist activity in HepG2 cells relative to E2 (ERα [4]): approximately 50 % of the agonist activity of E2
ERα agonist activity (transcription of target gene) in MCF-7 cells (ERα [2]): very poor agonists

C[C@]12CC[C@@H]3c4ccc(O)cc4C[C@@H](CCCCc4cn(-c5cc6ccc(O)cc6oc5=O)nn4)[C@H]3[C@@H]1CC[C@@H]2O [J7, 3-{4-[4-((7α,17β)-3,17-dihydroxyestra-1,3,5(10)-trien-7-yl)-butyl]-1,2,3-triazol-1-yl}-7-hydroxy-1-benzopyran-2-one]
antagonism of E2-stimulated luciferase expression in HeLa cells (ERα [3]): strongest antagonists
promotion of ERα - SRC-1 coactivator interaction (ERα LBD and SRC-1): did not induce significant SRC-1 binding
effect on growth of ER-positive MCF-7 cells (MCF-7 cells): concentration-dependent inhibition
ERα agonist activity (transcription of target gene) in MCF-7 cells (ERα [2]): no agonist activity

CCOC(=O)CC(=O)c1ccc(C#CCCCC[C@@H]2Cc3cc(O)ccc3[C@H]3CC[C@]4(C)[C@@H](O)CC[C@H]4[C@H]23)cc1 [J5, 3-{4-[6-((7α,17β)-3,17-dihydroxyestra-1,3,5(10)-trien-7-yl)-hex-1-ynyl]-phenyl}-3-oxo-propionic acid ethyl ester]
ERβ RBA (recombinant human ERβ): 4.7%
ERα RBA (ERα [1]): 6.2%
promotion of ERα - SRC-1 coactivator interaction (ERα LBD and SRC-1): effectively promoted the interaction
effect on growth of ER-positive MCF-7 cells (MCF-7 cells): either no effect or a stimulatory effect; also recorded: did not show an appreciable effect

C[C@]12CC[C@@H]3c4ccc(O)cc4C[C@@H](CCCCC#Cc4ccc5ccccc5c4)[C@H]3[C@@H]1CC[C@@H]2O [J2, 3,17β-bis(hydroxy)-7α-(6-naphthalen-2-yl-hex-5-ynyl)-estra-1,3,5(10)-trien]
ERα RBA (ERα [1]): 3.4%
promotion of ERα - SRC-1 coactivator interaction (ERα LBD and SRC-1): effectively promoted the interaction
effect on growth of ER-positive MCF-7 cells (MCF-7 cells): either no effect or a stimulatory effect; also recorded: did not show an appreciable effect

C[C@]12CC[C@@H]3c4ccc(O)cc4C[C@@H](CCCCCCCCC[S+]([O-])CCCC(F)(F)C(F)(F)F)[C@H]3[C@@H]1CC[C@@H]2O (stereo partly shown) [ICI-182,780, fulvestrant]
promotion of ERα interaction with CBP coactivator [5]: strongly promote ERα interaction with the CBP coactivator

C[C@]12CC[C@@H]3c4ccc(O)cc4C[C@@H](CCCCC#Cc4ccc(-n5cccc5)cc4)[C@H]3[C@@H]1CC[C@@H]2O [J1, 3,17β-bis(hydroxy)-7α-[6-(4-pyrrol-1-yl-phenyl)-hex-5-ynyl]-estra-1,3,5(10)-trien]
ERα RBA (ERα [1]): 21.2%
RBA for human ERs (ERα [1]): > 20 % of E2
promotion of ERα - SRC-1 coactivator interaction (ERα LBD and SRC-1): effectively promoted the interaction
effect on growth of ER-positive MCF-7 cells (MCF-7 cells): either no effect or a stimulatory effect; also recorded: did not show an appreciable effect

C[C@]12CC[C@@H]3c4ccc(O)cc4C[C@@H](CCCCc4cn(CC5COc6ccccc6O5)nn4)[C@H]3[C@@H]1CC[C@@H]2O (stereo partly drawn) [J9, 3,17β-bis(hydroxy)-7α-{4-[1-(2,3-Dihydro-1,4-benzodioxin-2-ylmethyl)-1H-1,2,3-triazol-4-yl]-butyl}-estra-1,3,5(10)-trien]
ERβ RBA (recombinant human ERβ): 21.1%
ERα agonist activity in HeLa or MCF-7 cells (ERα [3]): poor agonists
antagonism of E2-stimulated luciferase expression in HeLa cells (ERα [3]): strongest antagonists
ERα RBA (ERα [1]): 24.6%
RBA for the human ERα (ERα [1]; stated in docking discussion): 24.6 % of E2
RBA for human ERs (ERα [1]): > 20 % of E2
promotion of ERα - SRC-1 coactivator interaction (ERα LBD and SRC-1): did not induce significant SRC-1 binding
effect on growth of ER-positive MCF-7 cells (MCF-7 cells): concentration-dependent inhibition
agonist activity in HepG2 cells relative to E2 (ERα [4]; 100 nM derivative, normalized to 1 nM E2, pCR3.1-ERα + ERE-Elb-Luc): approximately 50 % of the agonist activity of E2
ERα agonist activity (transcription of target gene) in MCF-7 cells (ERα [2]): no agonist activity

C[C@]12CC[C@@H]3c4ccc(O)cc4C[C@@H](CCCCC#Cc4ccc(CN5CCCCC5)cc4)[C@H]3[C@@H]1CC[C@@H]2O [J6, 3,17β-bis(hydroxy)-7α-[6-(4-piperidin-1-ylmethyl-phenyl)-hex-5-ynyl]-estra-1,3,5(10)-trien]
ERα RBA (ERα [1]): 0.9%
RBA for human ERs (ERα [1]): approximately 1 % of E2
promotion of ERα - SRC-1 coactivator interaction (ERα LBD and SRC-1): effectively promoted the interaction
effect on growth of ER-positive MCF-7 cells (MCF-7 cells): either no effect or a stimulatory effect; also recorded: did not show an appreciable effect
ERα agonist activity (transcription of target gene) in MCF-7 cells (ERα [2]): markedly weaker effect

Source: paper PMC3666588 (Journal of medicinal chemistry, 2013)
